Here are results for 20 compounds from patent US12685735B2 (Foghorn Therapeutics Inc., priority 2020, dated 2026).

Read-outs that look alike come from different tables or passages of the source.

Assay [1] deals with BRM (Homo sapiens, UniProt P51531). Put plainly: ATPase catalytic activity assay of BRM (ADP-Glo). The class given is biochemical. A digest of the protocol:
(§1)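 Once the enzyme reaction finished, residual ATP is removed with ADP-Glo Reagent over 40 minutes at room temperature. Kinase Detection Reagent then converts product ADP into ATP during a 60-minute room-temperature incubation, and the luciferase signal is read.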
In general terms: In ADP-Glo the light output rises with the ADP produced.

Assay [2] deals with BRG-1 (Homo sapiens, UniProt P51532). Nature of the assay: ATPase catalytic activity assay of BRG-1 (ADP-Glo). The class given is biochemical. The following applies: ATPase catalytic activity, ADP-Glo; for Emax: read-out: BRG1 Max % Inhibition. A digest of the protocol:
as §1

The mark [3] stands for this setting: 30 nM BRM, 400 μM ATP, read-out: BRM IC50 (μM)*.
The mark [4] stands for this setting: 30 nM BRG-1, 400 μM ATP, read-out: BRG1 IC50 (μM)*.

Sequence of BRG-1 (P51532 whole entry): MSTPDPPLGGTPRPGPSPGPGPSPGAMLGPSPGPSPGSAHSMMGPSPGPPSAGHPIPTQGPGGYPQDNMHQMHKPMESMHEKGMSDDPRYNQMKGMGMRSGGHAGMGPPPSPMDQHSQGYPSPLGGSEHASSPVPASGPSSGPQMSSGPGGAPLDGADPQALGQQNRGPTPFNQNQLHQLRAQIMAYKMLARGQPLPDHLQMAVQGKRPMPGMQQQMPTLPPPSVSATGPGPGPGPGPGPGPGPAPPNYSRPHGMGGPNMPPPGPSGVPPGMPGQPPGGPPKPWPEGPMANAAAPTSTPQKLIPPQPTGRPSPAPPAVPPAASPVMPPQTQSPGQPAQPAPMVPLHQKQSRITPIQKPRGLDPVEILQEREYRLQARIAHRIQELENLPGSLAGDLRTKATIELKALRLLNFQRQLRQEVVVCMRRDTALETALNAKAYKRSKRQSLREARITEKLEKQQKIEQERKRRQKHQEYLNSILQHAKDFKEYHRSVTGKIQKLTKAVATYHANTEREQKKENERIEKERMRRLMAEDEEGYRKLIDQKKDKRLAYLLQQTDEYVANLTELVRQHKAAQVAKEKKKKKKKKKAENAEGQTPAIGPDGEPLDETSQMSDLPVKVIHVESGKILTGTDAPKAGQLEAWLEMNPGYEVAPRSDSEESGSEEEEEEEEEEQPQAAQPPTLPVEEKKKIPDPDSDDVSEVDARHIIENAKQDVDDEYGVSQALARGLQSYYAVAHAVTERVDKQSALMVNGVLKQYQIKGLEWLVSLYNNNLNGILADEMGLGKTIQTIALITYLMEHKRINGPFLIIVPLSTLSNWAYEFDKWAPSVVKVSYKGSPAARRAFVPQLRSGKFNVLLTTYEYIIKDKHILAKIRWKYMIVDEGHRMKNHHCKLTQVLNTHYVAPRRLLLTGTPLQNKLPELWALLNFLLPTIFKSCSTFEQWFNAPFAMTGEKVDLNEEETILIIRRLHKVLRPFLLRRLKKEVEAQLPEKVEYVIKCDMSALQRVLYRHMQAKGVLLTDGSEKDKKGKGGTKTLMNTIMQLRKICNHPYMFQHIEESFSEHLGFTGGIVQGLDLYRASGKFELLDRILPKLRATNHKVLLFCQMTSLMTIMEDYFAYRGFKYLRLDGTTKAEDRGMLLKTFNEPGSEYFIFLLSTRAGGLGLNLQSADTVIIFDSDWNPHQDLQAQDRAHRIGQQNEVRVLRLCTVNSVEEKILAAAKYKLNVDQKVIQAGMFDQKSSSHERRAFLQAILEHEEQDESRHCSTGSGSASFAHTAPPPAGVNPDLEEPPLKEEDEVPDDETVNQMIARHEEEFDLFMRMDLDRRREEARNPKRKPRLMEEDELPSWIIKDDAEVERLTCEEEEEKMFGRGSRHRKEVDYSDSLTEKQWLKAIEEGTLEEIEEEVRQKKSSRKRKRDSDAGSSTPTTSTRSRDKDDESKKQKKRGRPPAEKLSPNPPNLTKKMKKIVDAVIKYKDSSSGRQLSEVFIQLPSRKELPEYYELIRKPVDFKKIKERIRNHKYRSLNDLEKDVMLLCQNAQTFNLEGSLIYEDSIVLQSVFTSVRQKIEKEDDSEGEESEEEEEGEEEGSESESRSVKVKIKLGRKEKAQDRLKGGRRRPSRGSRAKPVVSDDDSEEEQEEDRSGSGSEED
Sequence of BRM (P51531 whole entry): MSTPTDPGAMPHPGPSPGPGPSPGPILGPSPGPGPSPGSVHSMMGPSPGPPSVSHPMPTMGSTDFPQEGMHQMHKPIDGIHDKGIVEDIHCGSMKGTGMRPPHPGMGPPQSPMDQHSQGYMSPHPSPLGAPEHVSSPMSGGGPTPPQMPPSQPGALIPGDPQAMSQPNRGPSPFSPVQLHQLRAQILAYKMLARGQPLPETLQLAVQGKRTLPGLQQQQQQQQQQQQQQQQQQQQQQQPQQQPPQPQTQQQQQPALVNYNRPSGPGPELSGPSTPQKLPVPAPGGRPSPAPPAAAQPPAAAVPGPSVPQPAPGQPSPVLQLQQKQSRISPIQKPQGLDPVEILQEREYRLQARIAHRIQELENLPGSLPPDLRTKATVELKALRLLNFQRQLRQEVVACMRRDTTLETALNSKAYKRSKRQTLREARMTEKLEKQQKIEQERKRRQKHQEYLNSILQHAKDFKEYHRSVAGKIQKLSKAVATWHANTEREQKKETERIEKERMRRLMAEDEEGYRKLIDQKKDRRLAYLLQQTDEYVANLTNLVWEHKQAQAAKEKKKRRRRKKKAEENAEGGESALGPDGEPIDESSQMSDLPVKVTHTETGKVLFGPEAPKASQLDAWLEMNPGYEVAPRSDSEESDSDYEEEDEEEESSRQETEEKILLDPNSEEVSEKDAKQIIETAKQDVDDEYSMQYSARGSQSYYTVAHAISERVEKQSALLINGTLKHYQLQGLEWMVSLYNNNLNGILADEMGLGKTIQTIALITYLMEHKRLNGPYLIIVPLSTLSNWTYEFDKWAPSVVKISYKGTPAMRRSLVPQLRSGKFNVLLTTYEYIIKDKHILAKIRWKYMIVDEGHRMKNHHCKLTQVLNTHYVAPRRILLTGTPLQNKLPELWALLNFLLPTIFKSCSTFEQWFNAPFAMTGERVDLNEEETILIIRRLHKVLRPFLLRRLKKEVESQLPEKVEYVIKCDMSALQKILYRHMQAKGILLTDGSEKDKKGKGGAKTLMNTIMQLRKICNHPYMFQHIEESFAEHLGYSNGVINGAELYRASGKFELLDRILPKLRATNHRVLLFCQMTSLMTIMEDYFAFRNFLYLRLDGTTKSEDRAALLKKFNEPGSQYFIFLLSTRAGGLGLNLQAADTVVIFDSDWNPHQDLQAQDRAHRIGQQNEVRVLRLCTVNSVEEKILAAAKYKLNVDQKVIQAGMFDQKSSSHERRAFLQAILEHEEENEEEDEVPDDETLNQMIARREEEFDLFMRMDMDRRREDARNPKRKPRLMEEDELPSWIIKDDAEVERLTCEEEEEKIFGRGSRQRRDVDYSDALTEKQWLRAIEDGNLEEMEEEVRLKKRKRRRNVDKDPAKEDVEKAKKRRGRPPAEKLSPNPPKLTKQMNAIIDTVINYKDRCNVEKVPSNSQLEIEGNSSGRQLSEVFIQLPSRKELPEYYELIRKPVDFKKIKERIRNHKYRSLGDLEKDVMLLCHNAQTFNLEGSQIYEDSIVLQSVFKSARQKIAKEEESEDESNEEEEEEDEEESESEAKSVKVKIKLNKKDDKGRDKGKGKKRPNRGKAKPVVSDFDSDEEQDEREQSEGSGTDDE

As to `CC1(C#N)CCOc2ccc(C(=O)NCC(=O)Nc3nc(-c4cccc(C(F)F)n4)cs3)cc21` (stereo in doubt) [Compound 430, (S)-4-cyano-N-(2-((4-(6-(difluoromethyl)pyridin-2-yl)thiazol-2-yl)amino)-2-oxoethyl)-4-methylchromane-6-carboxamide], in assay [1] (30 nM BRM, 400 μM ATP), the “BRM Max % Inhibition” value is on record as >95%. Besides, the figures for the IC50 in assay [1] (setting [3]) and in assay [2] (setting [4]) were 0.1 to 1 µM and 1 to 5 µM, respectively. For the same compound, in assay [2] (30 nM BRG-1, 400 μM ATP), the Emax is > 95%.

In the case of `COc1cccc(-c2csc(NC(=O)CNC(=O)c3ccc4c(c3)C(C)(C#N)CCO4)n2)c1` (stereo in doubt) [Compound 431, (S)-4-cyano-N-(2-((4-(3-methoxyphenyl)thiazol-2-yl)amino)-2-oxoethyl)-4-methylchromane-6-carboxamide], the “BRM Max % Inhibition” value in assay [1] (30 nM BRM, 400 μM ATP) was >95%. In addition, the IC50 (as a rule, the concentration that inhibits the measured activity by half) in assay [1] (setting [3]) is < 0.1 µM; in assay [2] (setting [4]), 0.1 to 1 µM. Moreover, in assay [2] (30 nM BRG-1, 400 μM ATP), the Emax is > 95%.

Turning to `Cc1cncc(-c2cccc(-c3csc(NC(=O)CNC(=O)c4ccc5c(c4)C(C)(CO)CC5)n3)c2)n1` (stereo in doubt) [Compound 432, (S)-3-(hydroxymethyl)-3-methyl-N-(2-((4-(3-(6-methylpyrazin-2-yl)phenyl)thiazol-2-yl)amino)-2-oxoethyl)-2,3-dihydro-1H-indene-5-carboxamide], the “BRM Max % Inhibition” value in assay [1] (30 nM BRM, 400 μM ATP) is given as >95%. Moreover, the results for the IC50 in assay [1] (setting [3]) and in assay [2] (setting [4]) were < 0.1 µM and 0.1 to 1 µM, respectively. The Emax in assay [2] (30 nM BRG-1, 400 μM ATP) is > 95%.

Turning to `CC1(C#N)CCOc2ccc(C(=O)NCC(=O)Nc3nc(-c4cccc(C5CC5)n4)cs3)cc21` (stereo in doubt) [Compound 439, (S)-4-cyano-N-(2-((4-(6-cyclopropylpyridin-2-yl)thiazol-2-yl)amino)-2-oxoethyl)-4-methylchromane-6-carboxamide], the “BRM Max % Inhibition” value in assay [1] (30 nM BRM, 400 μM ATP) is recorded as >95%. Further, the IC50 in assay [1] (setting [3]) fell in the range of 0.1 to 1 µM; in assay [2] (setting [4]), 1 to 5 µM. Further, in assay [2] (30 nM BRG-1, 400 μM ATP), the Emax was > 95%.

Consider `CC1(C#N)CCOc2ccc(C(=O)NCC(=O)Nc3nc(-c4cccc(-c5ccncc5)c4)cs3)cc21` (stereo in doubt) [Compound 440, (S)-4-cyano-4-methyl-N-(2-oxo-2-((4-(3-(pyridin-4-yl)phenyl)thiazol-2-yl)amino)ethyl)chromane-6-carboxamide], for which the “BRM Max % Inhibition” value in assay [1] (30 nM BRM, 400 μM ATP) is listed as >95%. Moreover, the IC50 in assay [1] (setting [3]) and in assay [2] (setting [4]) was < 0.1 µM each time. The Emax in assay [2] (30 nM BRG-1, 400 μM ATP) was > 95%.

Turning to `C[C@@H]1CN(c2cccc(-c3csc(NC(=O)CNC(=O)c4cccc(C5(F)CCOC5)c4)n3)n2)C[C@H](C)O1` (stereo in doubt) [Compound 441, N-(2-((4-(6-((cis)-2,6-dimethylmorpholino)pyridin-2-yl)thiazol-2-yl)amino)-2-oxoethyl)-3-((R)-3-fluorotetrahydrofuran-3-yl)benzamide], the “BRM Max % Inhibition” value in assay [1] (30 nM BRM, 400 μM ATP) was >90%. Also, the IC50 in assay [1] (setting [3]) is 0.1 to 1 µM; in assay [2] (setting [4]), > 5 µM. In addition, the Emax in assay [2] (30 nM BRG-1, 400 μM ATP) was > 90%.

For `CC1(C#N)CCOc2ccc(C(=O)NCC(=O)Nc3nc(-c4cccc(C(F)F)c4)cs3)cc21` (stereo in doubt) [Compound 442, (S)-4-cyano-N-(2-((4-(3-(difluoromethyl)phenyl)thiazol-2-yl)amino)-2-oxoethyl)-4-methylchromane-6-carboxamide], in assay [1] (30 nM BRM, 400 μM ATP), the “BRM Max % Inhibition” value is listed as >95%. The IC50 in assay [1] (setting [3]) is < 0.1 µM; in assay [2] (setting [4]), 0.1 to 1 µM. Moreover, in assay [2] (30 nM BRG-1, 400 μM ATP), the Emax was > 95%.

On to `Cc1nccc(-c2cccc(-c3csc(NC(=O)CNC(=O)c4cccc(S(=O)(=O)C(C)C)c4)n3)c2)n1` [Compound 13, 3-(isopropylsulfonyl)-N-(2-((4-(3-(2-methylpyrimidin-4-yl)phenyl)thiazol-2-yl)amino)-2-oxoethyl)benzamide], for which, in assay [1], the “BRM Max % Inhibition” value is listed as >95%. Moreover, the IC50 in assay [1] (read-out: BRM IC50 (μM)*) and in assay [2] (read-out: BRG1 IC50 (μM)*) was < 0.1 µM throughout. In addition, in assay [2], the Emax was > 95%.

`CC(C)S(=O)(=O)c1cccc(C(=O)NCC(=O)Nc2nc(-c3cccc(N4C[C@@H](C)O[C@@H](C)C4)c3)cs2)c1` [Compound 14, N-(2-((4-(3-((2S,6R)-2,6-dimethylmorpholino)phenyl)thiazol-2-yl)amino)-2-oxoethyl)-3-(isopropylsulfonyl)benzamide]: the “BRM Max % Inhibition” value in assay [1] is >95%. The IC50 was < 0.1 µM in assay [1] (read-out: BRM IC50 (μM)*) and 0.1 to 1 µM in assay [2] (read-out: BRG1 IC50 (μM)*). Moreover, in assay [2], the Emax is > 80%.

For the compound `CC(C)S(=O)(=O)c1cc(CO)cc(C(=O)NCC(=O)Nc2nc(-c3cccc(-c4ccncc4)c3)cs2)c1` [Compound 15, 3-(hydroxymethyl)-5-(isopropylsulfonyl)-N-(2-oxo-2-((4-(3-(pyridin-4-yl)phenyl)thiazol-2-yl)amino)ethyl)benzamide], in assay [1], the “BRM Max % Inhibition” value is listed as >50%. Besides, the half-inhibitory concentration (IC50) in assay [1] (read-out: BRM IC50 (μM)*) was 1 to 5 µM; in assay [2] (read-out: BRG1 IC50 (μM)*), > 5 µM. Moreover, in assay [2], the Emax was > 40%.

Turning to `Cc1cc(C(=O)NCC(=O)Nc2nc(-c3cccc(-c4ccncc4)c3)cs2)cc(S(=O)(=O)C(C)C)c1C` [Compound 16, 3-(isopropylsulfonyl)-4,5-dimethyl-N-(2-oxo-2-((4-(3-(pyridin-4-yl)phenyl)thiazol-2-yl)amino)ethyl)benzamide], the “BRM Max % Inhibition” value in assay [1] is on record as >70%. Also, the IC50 in assay [1] (read-out: BRM IC50 (μM)*) was 0.1 to 1 µM; in assay [2] (read-out: BRG1 IC50 (μM)*) it was > 5 µM. Further, the Emax in assay [2] was < 30%.

For `CC(C)S(=O)(=O)c1cccc(C(=O)NCC(=O)Nc2nc(-c3cccc(CO[C@H]4CC[C@H](O)CC4)c3)cs2)c1` [Compound 17, N-(2-((4-(3-((((1R,4R)-4-hydroxycyclohexyl)oxy)methyl)phenyl)thiazol-2-yl)amino)-2-oxoethyl)-3-(isopropylsulfonyl)benzamide], the “BRM Max % Inhibition” value in assay [1] is >90%. Besides, the IC50 in assay [1] (read-out: BRM IC50 (μM)*) is 0.1 to 1 µM; in assay [2] (read-out: BRG1 IC50 (μM)*), > 5 µM. Moreover, the Emax in assay [2] is > 60%.

As for `Cc1cc(-c2cccc(-c3csc(NC(=O)CNC(=O)c4cccc(S(=O)(=O)C(C)C)c4)n3)c2)cc(C)n1` [Compound 18, N-(2-((4-(3-(2,6-dimethylpyridin-4-yl)phenyl)thiazol-2-yl)amino)-2-oxoethyl)-3-(isopropylsulfonyl)benzamide], the “BRM Max % Inhibition” value in assay [1] is reported as >95%. For the same compound, the IC50 in assay [1] (read-out: BRM IC50 (μM)*) and in assay [2] (read-out: BRG1 IC50 (μM)*) was < 0.1 µM throughout. For the same compound, in assay [2], the Emax was > 95%.

For `CC(C)S(=O)(=O)c1cccc(C(=O)NCC(=O)Nc2nc(-c3cccc(-c4ccnc(C(F)(F)F)c4)c3)cs2)c1` [Compound 19, 3-(isopropylsulfonyl)-N-(2-oxo-2-((4-(3-(2-(trifluoromethyl)pyridin-4-yl)phenyl)thiazol-2-yl)amino)ethyl)benzamide], in assay [1], the “BRM Max % Inhibition” value is reported as >90%. Moreover, the results for the IC50 in assay [1] (read-out: BRM IC50 (μM)*) and in assay [2] (read-out: BRG1 IC50 (μM)*) were 0.1 to 1 µM and 1 to 5 µM, respectively.

In the case of `Cc1cc(C(=O)NCC(=O)Nc2nc(-c3cccc(-c4ccncc4)c3)cs2)cc(S(=O)(=O)C(C)C)c1` [Compound 20, 3-(isopropylsulfonyl)-5-methyl-N-(2-oxo-2-((4-(3-(pyridin-4-yl)phenyl)thiazol-2-yl)amino)ethyl)benzamide], the “BRM Max % Inhibition” value in assay [1] is recorded as >60%. Besides, the IC50 was 0.1 to 1 µM in assay [1] (read-out: BRM IC50 (μM)*) and > 5 µM in assay [2] (read-out: BRG1 IC50 (μM)*). The Emax in assay [2] is < 30%.

For `CC(C)S(=O)(=O)c1cccc(C(=O)NCC(=O)Nc2nc(-c3cccc(-c4cc(C#N)cc(C#N)c4)c3)cs2)c1` [Compound 21, N-(2-((4-(3′,5′-dicyano-[1,1′-biphenyl]-3-yl)thiazol-2-yl)amino)-2-oxoethyl)-3-(isopropylsulfonyl)benzamide], the “BRM Max % Inhibition” value in assay [1] is >80%. In addition, the IC50 in assay [1] (read-out: BRM IC50 (μM)*) lay within 0.1 to 1 µM; in assay [2] (read-out: BRG1 IC50 (μM)*), 1 to 5 µM. Also, in assay [2], the Emax is > 70%.

On to `CC(C)S(=O)(=O)c1cccc(C(=O)NCC(=O)Nc2nc(-c3cccc(-c4ccnc(N)c4)c3)cs2)c1` [Compound 22, N-(2-((4-(3-(2-aminopyridin-4-yl)phenyl)thiazol-2-yl)amino)-2-oxoethyl)-3-(isopropylsulfonyl)benzamide], for which the “BRM Max % Inhibition” value in assay [1] is >95%. In addition, the IC50 in assay [1] (BRM IC50 (μM)*) is < 0.1 µM; in assay [2] (BRG1 IC50 (μM)*) it was 0.1 to 1 µM.

Turning to `CC(C)S(=O)(=O)c1cccc(C(=O)NCC(=O)Nc2nc(-c3cccc(-c4cc(C#N)cc(CO)c4)c3)cs2)c1` [Compound 23, N-(2-((4-(3′-cyano-5′-(hydroxymethyl)-[1,1′-biphenyl]-3-yl)thiazol-2-yl)amino)-2-oxoethyl)-3-(isopropylsulfonyl)benzamide], the “BRM Max % Inhibition” value in assay [1] is listed as >90%. Further, the half-inhibitory concentration (IC50) in assay [1] (read-out: BRM IC50 (μM)*) and in assay [2] (read-out: BRG1 IC50 (μM)*) was 0.1 to 1 µM throughout. For the same compound, the Emax in assay [2] was > 80%.

As to `CC(C)S(=O)(=O)c1cccc(C(=O)NCC(=O)Nc2nc(-c3cccc(-c4cccc(C#N)c4)c3)cs2)c1` [Compound 24, N-(2-((4-(3′-cyano-[1,1′-biphenyl]-3-yl)thiazol-2-yl)amino)-2-oxoethyl)-3-(isopropylsulfonyl)benzamide], the “BRM Max % Inhibition” value in assay [1] is reported as >90%. Besides, the figures for the IC50 in assay [1] (read-out: BRM IC50 (μM)*) and in assay [2] (read-out: BRG1 IC50 (μM)*) were 0.1 to 1 µM and 1 to 5 µM, respectively.

On to `CC(=O)N(C)c1cc(-c2cccc(-c3csc(NC(=O)CNC(=O)c4cccc(S(=O)(=O)C(C)C)c4)n3)c2)ccn1` [Compound 25, 3-(isopropylsulfonyl)-N-(2-((4-(3-(2-(N-methylacetamido)pyridin-4-yl)phenyl)thiazol-2-yl)amino)-2-oxoethyl)benzamide], for which the “BRM Max % Inhibition” value in assay [1] was >90%. Besides, the figures for the IC50 in assay [1] (read-out: BRM IC50 (μM)*) and in assay [2] (read-out: BRG1 IC50 (μM)*) were < 0.1 µM and 0.1 to 1 µM, respectively. For the same compound, the Emax in assay [2] was > 80%.
